Measurements published in PubChem BioAssay AID1645864 (Buhrlage Lab, Dana-Farber Cancer Institute and Novartis …, 2021).
Activity calls are given as the source filed them.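 How the source made its calls: active means maximal inhibition of USP17 at or above 30% in the confirmation dose-response, a value not among the printed readouts; inactive means the rest.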

Biological target: Ubiquitin carboxyl-terminal hydrolase 17-like protein 5 (Homo sapiens) (UniProt A8MUK1)
Assay: ubiquitin-specific protease 17 inhibitors, concentration series, biochemical, verification of primary actives (AID 1645864)
Details: purified USP17, ubiquitin-rhodamine cleavage fluorescence, 3 h

Ubiquitin carboxyl-terminal hydrolase 17-like protein 5 (Homo sapiens), sequence (A8MUK1 whole entry, looked up): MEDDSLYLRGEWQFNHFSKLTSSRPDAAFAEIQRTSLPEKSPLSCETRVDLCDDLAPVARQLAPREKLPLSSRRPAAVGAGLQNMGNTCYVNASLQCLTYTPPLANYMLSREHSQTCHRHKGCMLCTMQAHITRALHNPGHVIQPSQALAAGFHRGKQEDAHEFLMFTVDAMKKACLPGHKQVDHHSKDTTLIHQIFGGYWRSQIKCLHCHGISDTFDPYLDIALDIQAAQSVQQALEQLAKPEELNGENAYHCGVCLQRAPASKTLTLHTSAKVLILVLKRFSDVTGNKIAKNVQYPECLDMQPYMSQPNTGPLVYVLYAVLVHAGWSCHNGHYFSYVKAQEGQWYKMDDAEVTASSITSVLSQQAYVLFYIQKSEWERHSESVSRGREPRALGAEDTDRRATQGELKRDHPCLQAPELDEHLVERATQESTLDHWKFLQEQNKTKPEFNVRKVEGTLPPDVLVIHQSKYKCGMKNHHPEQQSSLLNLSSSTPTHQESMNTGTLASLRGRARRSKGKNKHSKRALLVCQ

Structure (SMILES) | IC50
O=C(NC1CC1)c1ccnn1-c1ccc2ccc(-c3ccncc3)cn12 | > 50 µM (inactive)
COCCNC(=O)c1ccn(-c2ccc3ccc(-c4ccncc4)cn23)n1 | > 50 µM (inactive)
Cc1ccccc1NC(=O)Nc1ccccc1OCc1cc(=O)n2cccc(C)c2n1 | 0.663 µM
CCOc1ccc2[nH]c3c(=O)n(CCc4ccc(OC)cc4)cnc3c2c1 | 4.41 µM
COC1C(O)=C2C(=O)O/C(C)=C/C=C/C=C/C=C/CC(c3ccccc3)NC(=O)/C=C/C=C/C=C\C=C\C2(C)C1O (stereo not drawn) | > 50 µM (inactive)
CC1CC[C@]2(NC1)O[C@H]1C[C@H]3[C@@H]4CC[C@H]5C[C@@H](O[C@@H]6O[C@H](CO)[C@H](O[C@@H]7O[C@H](CO)[C@@H](O)[C@H](O[C@@H]8OC[C@@H](O)[C@H](O)[C@H]8O)[C@H]7O[C@@H]7O[C@H](CO)[C@@H](O)[C@H](O)[C@H]7O)[C@H](O)[C@H]6O)CC[C@]5(C)[C@H]4CC[C@]3(C)[C@H]1[C@@H]2C (stereo partly drawn) | 40 µM
CCn1ccc2c(cc(C(=O)Nc3cc(F)ccc3F)n2C)c1=O | > 50 µM (inactive)
O=C(c1ccco1)N1CCN=C1SCc1ccccc1F | > 50 µM (inactive)
O=C(NC(Cc1ccccc1)c1nc2ccccc2[nH]1)C1CC1 (stereo not drawn) | 49.7 µM
COc1cccc(NC(=O)C2Cn3ccnc3C3(CCN(C(C)=O)CC3)O2)c1 (stereo not drawn) | > 50 µM (inactive)
COc1ccc(C(=O)Nc2cc(F)c3nc(N4CCOCC4)ccc3c2)c(OC)c1 | 33.9 µM
COc1ccc(NC(=O)CC(=O)c2ccc([N+](=O)[O-])cc2)cc1S(=O)(=O)Nc1ccc(Br)cc1 | 22 µM
COc1ccc(-c2nnc(SCc3ccccc3C#N)o2)c(OC)c1 | > 50 µM (inactive)
Cc1ccc(C)c(NC(=O)CCc2nc(CSc3nc4ccccc4o3)no2)c1 | 33.9 µM
CNC(=O)c1cc2c(=O)n3cccc(C)c3nc2n1Cc1ccccc1 | 2.36 µM
Cc1cc(=O)n(CC(=O)NCc2ccccc2F)c2c1c(C)nn2-c1ccccc1 | 24.2 µM
CC(CCc1ccccc1)NC(=O)Cn1c(=O)c2cccn2c2ccccc21 (stereo not drawn) | 11.6 µM
O=C1N[C@@H](Cc2ccccc2)C(=O)N2[C@H]3Nc4ccccc4[C@@]3([C@]34C[C@H]5C(=O)N[C@@H](Cc6ccccc6)C(=O)N5[C@H]3Nc3ccccc34)C[C@@H]12 | 38.4 µM
COc1ccc(-c2cc(C(=O)NC3CCCCCC3)[nH]n2)cc1S(=O)(=O)N(C)C | 44.5 µM
Fc1ccc(Cn2ccc(-c3cnc(-c4ccccc4)s3)n2)cc1 | > 50 µM (inactive)
Cc1cnc2nc3c(cc2c1)CN(S(=O)(=O)c1cc(F)ccc1C)CC3 | > 50 µM (inactive)
CC(C)c1ccc(NC(=O)c2cc3ncc(Br)cn3n2)cc1 | 1.73 µM
O=C1c2c(O)cccc2C2(Oc3cccc4cccc(c34)O2)C2OC12 (stereo not drawn) | 10.1 µM
CC(C)CCn1c(=O)c2ccccc2n2c(CCC(=O)NC3CCCCCC3)nnc12 | > 50 µM (inactive)

Structure (SMILES) | IC50
c1ccc(Cc2nn3c(-c4cccnc4)nnc3c3ccccc23)cc1 | 0.42 µM
Cc1cc(C)c(NC(=O)CSc2nc3nccnc3c(=O)n2Cc2ccccc2Cl)c(C)c1 | 4.02 µM
O=C(NCC1CC1)C1CCCN(c2ccc(-c3ccccc3)nn2)C1 (stereo not drawn) | > 50 µM (inactive)
CC(=O)Nc1ccc(Cc2nc(-c3ccc4c(c3)nc(C)c(=O)n4C3CCCC3)no2)cc1 | > 50 µM (inactive)
Nc1c(C(=O)NCc2ccc3c(c2)OCO3)nnn1Cc1ccc(Br)cc1F | 2.8 µM
CCn1cnc2ccc(C(=O)NC3CC3)cc2c1=O | > 50 µM (inactive)
CCCn1c(=O)c(-c2ccc(C(=O)NCc3ccc(OC)cc3)cc2)nc2cccnc21 | 1.78 µM
COc1ccc(CNC(=O)C(C)n2nc(-c3ccco3)c(-c3cc(C)no3)cc2=O)cc1 (stereo not drawn) | 25.1 µM
COC(=O)[C@]1(O)O[C@@]2(C(=O)OC)c3c(oc4cc(C)cc(O)c4c3=O)[C@H]3c4c(oc5cc(C)cc(O)c5c4=O)C[C@H]1[C@H]32 | > 50 µM (inactive)
COc1cc(/C=C/C(=O)OCC(=O)Nc2ccc([N+](=O)[O-])cc2OC)ccc1O | 19.9 µM
CCOC(=O)c1ccc(NC(=O)c2cnc(N3CCOCC3)nc2)cc1 | > 5 µM (inactive)
O=C(c1ccc2occc2c1)N1CCC(S(=O)(=O)c2ccc(-c3ccco3)cc2)CC1 | > 50 µM (inactive)
O=C1N(Cc2ccc(F)cc2)CCN1c1ccc2c(c1)CCC2 | > 50 µM (inactive)
Cc1nc2sc(C(=O)Nc3ccccc3Br)c(N)c2c(C)c1C | 1.12 µM
CCOc1ccc(NS(=O)(=O)c2ccc(NC(=O)Nc3ccccc3)cc2)cc1 | 17.9 µM
COc1ccc2nc(NC(=O)C(CC(C)C)NS(=O)(=O)c3ccc4c(c3)CCN4C(C)=O)sc2c1 (stereo not drawn) | 29.2 µM
Cc1ccc(CNC(=O)c2ccc(N3C(=O)[C@@H]4Cc5ccccc5CN4C3=O)cc2)cc1 | 34.2 µM
CCn1cc2c(n1)c(=O)n(Cc1ccccc1)c(=O)n2CC(=O)Nc1ccc(OC)cc1 | 2.91 µM
CC(C(=O)NCc1ccc(F)cc1)n1cccc1C(=O)c1ccccc1 (stereo not drawn) | > 50 µM (inactive)
C=C[C@]1(C)C=C2C(=O)[C@]3(O)OC(=O)[C@@]4(CCCC(C)(C)[C@H]34)[C@@]2(O)CC1 | 29.7 µM
NC(=O)CCC(=O)N[C@H]1C[C@H]2CN(Cc3ccccc3)c3ccccc3CN2C1 | > 50 µM (inactive)
CCn1c(CN2CCCC(c3nc(-c4cccnc4)n[nH]3)C2)nc2ccccc21 (stereo not drawn) | > 50 µM (inactive)
Nc1c(C(=O)NCCc2ccccc2)nnn1-c1ccc(F)cc1 | 40.2 µM
COc1ccc2c(c1)c(N1CCCC1=O)c(C(=O)NCc1cccc(OC)c1OC)n2C | > 50 µM (inactive)

Structure (SMILES) | IC50
COc1ccc(/C=C\c2nccc3c2[nH]c2ccccc23)cc1 | > 50 µM (inactive)
CN1CCC(N(C)S(=O)(=O)c2ccc(NC(=O)c3cccc(OCc4ccccc4)c3)cc2)CC1 | > 50 µM (inactive)
CC(C)Cc1nc2sc3c(NCCN4CCOCC4)ncnc3c2c2c1CCC2 | > 50 µM (inactive)
O=C(NCc1ccc(Cl)cc1)c1ccc(N2CCCS2(=O)=O)cc1 | > 50 µM (inactive)
Cc1ccc(C(=O)Nc2ccc3c(c2)C(=O)N(C)c2ccccc2O3)cc1C | > 50 µM (inactive)
CC(=O)N1CCc2cc(S(=O)(=O)NCCC(=O)Nc3cccc(C)c3C)ccc21 | 23.7 µM
O=C(Cn1c(=O)n(Cc2ccc3c(c2)OCO3)c(=O)c2ncccc21)c1ccccc1 | 46.8 µM
Cc1cccc(NC(=O)CSc2nnc(-c3n[nH]c4c3CCC4)n2N)c1 | 35.1 µM
CN(C)c1cccc(C(=O)Nc2cc(-c3cccnc3)no2)c1 | 26.9 µM
Cc1ccccc1NC(=O)CNc1nc(Nc2ccccc2)nc(Nc2ccccc2)n1 | 21.7 µM
CN1C(=O)[C@]23CC4=CC=C[C@H](O)[C@H]4N2C(=O)[C@@]1(CO)SS3 | > 50 µM (inactive)
COc1ccc(-n2c(=O)c(CCC(=O)O)nc3ccccc32)cc1 | > 50 µM (inactive)
COc1cc(C2SCC(=O)Nc3c2c(-c2ccccc2)nn3-c2ccccc2)cc(OC)c1OC (stereo not drawn) | > 50 µM (inactive)
Cc1ccc(Nc2nc(C(=O)NCc3ccc4c(c3)OCO4)cc3occc23)cc1Cl | 28.1 µM
CC(C(=O)NCc1ccc2c(c1)OCO2)N1CCN(c2ccc(O)cc2)CC1 (stereo not drawn) | 30.1 µM
CCCN1CCN(C(=O)c2cc(NC(=O)C3CCC3)cc3nc(C)ccc23)CC1 | > 50 µM (inactive)
Cc1ccccc1NC(=O)Cn1c(N2CCOCC2)nc2cc(C)n(C)c2c1=O | 25.8 µM
Cc1ccc(CNC(=O)CCCn2c(=O)c3sccc3n(CC(=O)OCc3ccccc3)c2=O)cc1 | 2.5 µM
Cc1nc(-c2cccc(NC(=O)C3CCN(c4ccccc4)C3=O)c2)no1 (stereo not drawn) | 37.2 µM
O=c1c2cnc(N3CCCCC3)nc2ccn1CCc1ccccc1 | 1.87 µM
O=C(COc1ccccc1-c1nnc(-c2ccccc2)o1)Nc1ccc(F)cc1F | 1.87 µM
CC1CCN(c2cc(-n3cnc(C(=O)N4CCCC(C)C4)c3)ncn2)CC1 (stereo not drawn) | > 50 µM (inactive)
O=C(Cn1cc(C(=O)C(F)(F)F)c2ccccc21)N1CCc2ccccc21 | 3.5 µM
COc1ccccc1CNC(=O)c1ccccc1OCc1ccccc1Cl | > 50 µM (inactive)

Structure (SMILES) | IC50
COCCNC(=O)c1ccc(-c2ccc(N3CCCCC3)nc2)cc1 | 26.8 µM
CC(C)c1cc(NCc2ccccc2)n2nc(-c3cccnc3)nc2n1 | 18.9 µM
Cc1nn(-c2cccc(F)c2)c2c1C(C(=O)c1ccc(Cl)s1)CC(=O)N2 (stereo not drawn) | 39.8 µM
COc1cccc(NC(=O)C2CCN(C(=O)c3cc(-c4cccnc4)n[nH]3)CC2)c1 | > 50 µM (inactive)
O=C(Cn1c(=O)n(CC(=O)NC2CCCC2)c(=O)c2ccccc21)Nc1cc(Cl)ccc1Cl | 4.66 µM
C/C1=C\CCC(C)C(O)CC(O)C(C)C(O)CCC(C)C(O)CC2(O)OC(CC(OC(=O)CC(=O)O)CC(O)CC(O)CC(O)C(C)C(O)/C=C/C(C)C(C(C)CCCCCCCCN=C(N)N)OC1=O)CC(O)C2O (stereo not drawn) | > 50 µM (inactive)
COc1ccccc1NC(=O)Nc1ccc(NC(=O)c2ccccc2O)cc1 | 47.5 µM
Cc1ccc2c(c1)-c1c(c(C(=O)N3CCN(c4ccccc4)CC3)nn1C)CS2 | > 50 µM (inactive)
COc1ccc(Nc2ncc(C(=O)Nc3ccc(Oc4ccccc4)cc3)c3ccccc23)cc1 | > 50 µM (inactive)
Cc1c(C(=O)Nc2cccc(C(F)(F)F)c2)cnn1-c1ccccn1 | 34.4 µM
COc1ccc(-n2nnc3c(SCC(=O)Nc4cc(C)on4)ncnc32)cc1 | > 50 µM (inactive)
CCOC(=O)c1c(C)nc2n(Cc3ccccc3)c3ccccc3n12 | 23 µM
Cc1cc(C)c(NC(=O)Cn2c(=O)n(CCC(=O)NCc3ccc4c(c3)OCO4)c(=O)c3sccc32)c(C)c1 | 3.02 µM
Cc1nc(SCC#N)c2oc3ccccc3c2n1 | 44.1 µM
O=c1c2ccccc2ncn1C1CCN(S(=O)(=O)c2ccccc2F)CC1 | 28.9 µM
O=C(COC(=O)c1cc(Cl)c2c(c1)OCO2)Nc1ccc2[nH]c(=O)[nH]c2c1 | 4.92 µM
N[C@@H](Cc1ccccc1)C(=O)N1CCC2(CC1)CN(C(=O)c1ccc(Cl)cc1)CCO2 | > 50 µM (inactive)
CS(=O)(=O)N1CCCc2cc(C(=O)Nc3ccc(Oc4ccccc4)cc3)ccc21 | > 50 µM (inactive)
COc1ccc(CCC(=O)Nc2ccc3c(c2)Sc2ncccc2C(=O)N3C)cc1 | > 50 µM (inactive)
COC(=O)c1sc2ccccc2c1NC(=O)c1ccc(Br)s1 | 20.6 µM
CCn1cc2c(n1)c(=O)n(Cc1ccc(C)cc1)c(=O)n2CC(=O)Nc1ccc(F)cc1 | 4.06 µM
